Laboratory results as given in US20260193249A1, “PREPARATION OF PYRAZOLOPYRIDINE AND TRIAZOLOPYRIDINE DERIVATIVES AS NOVEL DIACYLGLYCERIDE O-ACYLTRANSFERASE 2 INHIBITORS” (Merck Sharp & Dohme LLC, priority 2022, published 2026).

Biological target: T1, human DGAT2 (Homo sapiens, UniProt Q96PD7)
T1 construct: made in house; host or cells: Sf-9 insect cells (baculovirus), membrane fraction
T1 sequence (Q96PD7 1-388): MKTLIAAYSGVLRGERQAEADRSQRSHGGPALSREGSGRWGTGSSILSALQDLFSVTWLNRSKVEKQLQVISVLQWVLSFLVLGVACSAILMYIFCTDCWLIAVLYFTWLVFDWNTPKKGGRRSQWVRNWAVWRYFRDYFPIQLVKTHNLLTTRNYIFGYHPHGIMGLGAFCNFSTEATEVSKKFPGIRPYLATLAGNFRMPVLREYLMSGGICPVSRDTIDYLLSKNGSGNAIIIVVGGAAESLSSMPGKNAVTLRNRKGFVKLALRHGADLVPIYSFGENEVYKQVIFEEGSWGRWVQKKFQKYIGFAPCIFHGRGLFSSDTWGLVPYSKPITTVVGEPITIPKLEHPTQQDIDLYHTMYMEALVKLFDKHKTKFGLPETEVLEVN
Assay: DGAT2 Enzymatic Activity Assay
Format: biochemical
Conditions: membrane prep of Sf-9 insect cells expressing hDGAT2; 13C18-triolein product by LC/MS/MS; 25 μM diolein, 5 μM 13C oleoyl-CoA
Experimental: Sf-9 insect cells were maintained in Grace's insect cell culture medium with 10% heated-inactivated fetal bovine serum, 1% Pluronic F-68 and 0.14 μg/ml Kanamycine sulfate at 27° C. in a shaker incubator. After infection with untagged baculovirus expressing human DGAT2 (hDGAT2) at multiplicity of infection (MOI) 3 for 48 hours, cells were harvested. Cell pellets were suspended in buffer containing 10 mM Tris-HCl pH 7.5, 1 mM EDTA, 250 mM sucrose and Complete Protease Inhibitor Cocktail (Sigma Aldrich), and sonicated on ice. Cell debris were removed by centrifugation at 2000×g for 15 minutes. Membrane fractions were isolated by ultracentrifugation (100,000×g), resuspended in the same buffer, and frozen (−80° C.) for later use. The protein concentration was determined with the Pierce™ BCA Protein Assay Kit (Thermo Fisher Scientific).
LC/MS/MS analyses were performed using Thermal Fisher's LX4-TSQ Vantage system. This system consists of an Agilent binary high-performance liquid chromatography (HPLC) pump and a TSQ Vantage triple quadrupole MS/MS instrument. For each sample, 2 μL samples from the top organic layer of in-plate liquid-liquid extraction were injected onto a Thermo Betabasic C4 column (2.1 mm×20 mm, 5 μm particle size). The samples were then eluted using the following conditions; mobile phase: Isopropanol:acetonitrile/10 mM ammonium formate=50/35/15 (v/v/v), flow rate: 0.8 mL/min, temperature: 25° C. Data was acquired in positive mode using a heated electrospray ionization (HESI) interface. […] The peak area was integrated by Xcalibur Quan software. The ratio between the ^13C18triolein generated in the reaction and spiked in internal standard ^13C21-triolein was used to generate percentage inhibition and IC50 values. Compound percentage inhibition was calculated by the following formula: Inhibition %=1−[(compound response−low control)/(high control−low control)]×100%.
DGAT2 activity was determined by measuring the amount of enzymatic product ^13C18-triolein (^13C-1,2,3-Tri(cis-9-octadecenoyl)glycerol) using the membrane prep mentioned above. The assay was carried out in ABgene 384-well assay plates in a final volume of 25 μL at rt.

SMILES | IC50
C[C@@]1(NC(=O)c2nn3ccc(Oc4ncccc4OCC(F)(F)F)cc3c2Cl)CCS(=O)(=O)C1 [Example 26, (R)-3-Chloro-N-(3-methyl-1,1-dioxidotetrahydrothiophen-3-yl)-5-((3-(2,2,2-trifluoroethoxy)pyridin-2-yl)oxy)pyrazolo[1,5-a]pyridine-2-carboxamide] | 388 nM
C[C@@]1(NC(=O)c2cc3cc(Oc4ncc(F)cc4OCC(F)(F)F)ccn3n2)CCS(=O)(=O)C1 [Example 18, (R)-5-((5-Fluoro-3-(2,2,2-trifluoroethoxy)pyridin-2-yl)oxy)-N-(3-methyl-1,1-dioxidotetrahydrothiophen-3-yl)pyrazolo[1,5-a]pyridine-2-carboxamide] | 33 nM
CC(C)(CNS(C)(=O)=O)NC(=O)c1cc2cc(Oc3ncccc3OCC(F)(F)F)ccn2n1 [Example 3, N-(2-Methyl-1-(methylsulfonamido)propan-2-yl)-5-((3-(2,2,2-trifluoroethoxy)pyridin-2-yl)oxy)pyrazolo[1,5-a]pyridine-2-carboxamide] | 694 nM
C[C@@]1(NC(=O)c2cc3cc(Oc4nccnc4OCC(F)F)ccn3n2)CCS(=O)(=O)C1 [Example 8, (R)-5-((3-(2,2-Difluoroethoxy)pyrazin-2-yl)oxy)-N-(3-methyl-1,1-dioxidotetrahydrothiophen-3-yl)pyrazolo[1,5-a]pyridine-2-carboxamide] | 211 nM
CC1(NC(=O)c2cc3cc(Oc4ncc(F)cc4OC4CC4)ccn3n2)CCS(=O)(=O)CC1 [Example 10, 5-((3-Cyclopropoxy-5-fluoropyridin-2-yl)oxy)-N-(4-methyl-1,1-dioxidotetrahydro-2H-thiopyran-4-yl)pyrazolo[1,5-a]pyridine-2-carboxamide] | 85 nM
CC1(NC(=O)c2cc3cc(Oc4ncc(C(O)C5CC5)cc4OCC(F)(F)F)ccn3n2)CCS(=O)(=O)CC1 (single isomer, unassigned) [Example 43a, 5-((5-(Cyclopropyl(hydroxy)methyl)-3-(2,2,2-trifluoroethoxy)pyridin-2-yl)oxy)-N-(4-methyl-1,1-dioxidotetrahydro-2H-thiopyran-4-yl)pyrazolo[1,5-a]pyridine-2-carboxamide] | 228 nM
CC1(NC(=O)c2nn3ccc(Oc4ncc(F)cc4OCC(F)(F)F)c(Cl)c3c2Cl)CCS(=O)(=O)CC1 [Example 33, 3,4-Dichloro-5-((5-fluoro-3-(2,2,2-trifluoroethoxy)pyridin-2-yl)oxy)-N-(4-methyl-1,1-dioxidotetrahydro-2H-thiopyran-4-yl)pyrazolo[1,5-a]pyridine-2-carboxamide] | 8.8 nM
CC1(NC(=O)c2nn3ccc(Oc4ncccc4OCC(F)(F)F)cc3c2F)CS(=O)(=O)C1 [Example 22, 3-Fluoro-N-(3-methyl-1,1-dioxidothietan-3-yl)-5-((3-(2,2,2-trifluoroethoxy)pyridin-2-yl)oxy)pyrazolo[1,5-a]pyridine-2-carboxamide] | 372 nM
CC1(NC(=O)c2nn3ccc(Oc4nccnc4OCC(F)F)cc3c2Cl)CS(=O)(=O)C1 [Example 30, 3-Chloro-5-((3-(2,2-difluoroethoxy)pyrazin-2-yl)oxy)-N-(3-methyl-1,1-dioxidothietan-3-yl)pyrazolo[1,5-a]pyridine-2-carboxamide] | 78 nM
CC1(NC(=O)c2cc3cc(Oc4nccnc4OCC(F)F)ccn3n2)CCS(=O)(=O)CC1 [Example 9, 5-((3-(2,2-Difluoroethoxy)pyrazin-2-yl)oxy)-N-(4-methyl-1,1-dioxidotetrahydro-2H-thiopyran-4-yl)pyrazolo[1,5-a]pyridine-2-carboxamide] | 2.3 nM
CC1(NC(=O)c2cc3cc(Oc4ncc(C(O)C5CC5)cc4OCC(F)(F)F)ccn3n2)CCS(=O)(=O)CC1 (single isomer, unassigned) [Example 43b, 5-((5-(Cyclopropyl(hydroxy)methyl)-3-(2,2,2-trifluoroethoxy)pyridin-2-yl)oxy)-N-(4-methyl-1,1-dioxidotetrahydro-2H-thiopyran-4-yl)pyrazolo[1,5-a]pyridine-2-carboxamide] | > 9990 nM
CC1(NC(=O)c2cc3cc(Oc4ncc(F)cc4OCC(F)F)ccn3n2)CS(=O)(=O)C1 [Example 11, 5-((3-(2,2-Difluoroethoxy)-5-fluoropyridin-2-yl)oxy)-N-(3-methyl-1,1-dioxidothietan-3-yl)pyrazolo[1,5-a]pyridine-2-carboxamide] | 2.5 nM
O=C(NC1CCCC1)c1cc2cc(Oc3ncccc3OCC(F)(F)F)ccn2n1 [Example 7, N-Cyclopentyl-5-((3-(2,2,2-trifluoroethoxy)pyridin-2-yl)oxy)pyrazolo[1,5-a]pyridine-2-carboxamide] | 1070 nM
C[C@]1(NC(=O)c2nn3ccc(Oc4ncccc4OCC(F)(F)F)cc3c2Cl)CCS(=O)(=O)C1 [Example 27, (S)-3-Chloro-N-(3-methyl-1,1-dioxidotetrahydrothiophen-3-yl)-5-((3-(2,2,2-trifluoroethoxy)pyridin-2-yl)oxy)pyrazolo[1,5-a]pyridine-2-carboxamide] | 400 nM
CN1C(C)(C)C(NC(=O)c2cc3cc(Oc4ncccc4OCC(F)(F)F)ccn3n2)CS1(=O)=O (racemic) [Example 2, 5-((3-(2,2,2-Trifluoroethoxy)pyridin-2-yl)oxy)-N-(2,3,3-trimethyl-1,1-dioxidoisothiazolidin-4-yl)pyrazolo[1,5-a]pyridine-2-carboxamide] | 787 nM

Further lines, results first:

IC50 | SMILES
349 nM | CC1(NC(=O)c2nc3cc(Oc4ncc(Cl)cc4OCC(F)(F)F)ccn3n2)CCS(=O)(=O)CC1 [Example 63, 7-((5-Chloro-3-(2,2,2-trifluoroethoxy)pyridin-2-yl)oxy)-N-(4-methyl-1,1-dioxidotetrahydro-2H-thiopyran-4-yl)-[1,2,4]triazolo[1,5-a]pyridine-2-carboxamide]
257 nM | CCc1c(C(=O)NC2(C)CS(=O)(=O)C2)nn2ccc(Oc3ncccc3OCC(F)(F)F)cc12 [Example 47, 3-Ethyl-N-(3-methyl-1,1-dioxidothietan-3-yl)-5-((3-(2,2,2-trifluoroethoxy)pyridin-2-yl)oxy)pyrazolo[1,5-a]pyridine-2-carboxamide]
828 nM | CC1(NC(=O)c2nn3ccc(Oc4ncccc4OCC(F)(F)F)cc3c2C(F)(F)F)CCS(=O)(=O)CC1 [Example 51, N-(4-Methyl-1,1-dioxidotetrahydro-2H-thiopyran-4-yl)-5-((3-(2,2,2-trifluoroethoxy)pyridin-2-yl)oxy)-3-(trifluoromethyl)pyrazolo[1,5-a]pyridine-2-carboxamide]
133 nM | CC1(NC(=O)c2nn3ccc(Oc4ncc(Cl)cc4OCC(F)F)nc3c2F)CCS(=O)(=O)CC1 [Example 61, 5-((5-Chloro-3-(2,2-difluoroethoxy)pyridin-2-yl)oxy)-3-fluoro-N-(4-methyl-1,1-dioxidotetrahydro-2H-thiopyran-4-yl)pyrazolo[1,5-a]pyrimidine-2-carboxamide]
86 nM | CC1(NC(=O)c2cc3nc(Oc4ncc(Cl)cc4OCC(F)F)ccn3n2)CCS(=O)(=O)CC1 [Example 62, 5-((5-Chloro-3-(2,2-difluoroethoxy)pyridin-2-yl)oxy)-N-(4-methyl-1,1-dioxidotetrahydro-2H-thiopyran-4-yl)pyrazolo[1,5-a]pyrimidine-2-carboxamide]
46 nM | CC(C)c1c(C(=O)NC2(C)CCS(=O)(=O)CC2)nn2ccc(Oc3ncccc3OCC(F)(F)F)cc12 [Example 48, 3-Isopropyl-N-(4-methyl-1,1-dioxidotetrahydro-2H-thiopyran-4-yl)-5-((3-(2,2,2-trifluoroethoxy)pyridin-2-yl)oxy)pyrazolo[1,5-a]pyridine-2-carboxamide]
6.6 nM | Cc1c(Oc2ncc(F)cc2OCC(F)(F)F)ccn2nc(C(=O)NC3(C)CCS(=O)(=O)CC3)cc12 [Example 58, 5-((5-Fluoro-3-(2,2,2-trifluoroethoxy)pyridin-2-yl)oxy)-4-methyl-N-(4-methyl-1,1-dioxidotetrahydro-2H-thiopyran-4-yl)pyrazolo[1,5-a]pyridine-2-carboxamide]
> 9990 nM | COc1cccc(COc2ccn3nc(C(=O)NC4(C)CCS(=O)(=O)CC4)cc3n2)n1 [Example 68, 5-((6-Methoxypyridin-2-yl)methoxy)-N-(4-methyl-1,1-dioxidotetrahydro-2H-thiopyran-4-yl)pyrazolo[1,5-a]pyrimidine-2-carboxamide]
